Series [1] has as its target T1, CAATCH1 (msCAATCH1) (Manduca sexta, UniProt Q9U5A9).
T1 construct: full-length transporter from cRNA in Xenopus laevis oocytes
T1 sequence (Q9U5A9 1-633): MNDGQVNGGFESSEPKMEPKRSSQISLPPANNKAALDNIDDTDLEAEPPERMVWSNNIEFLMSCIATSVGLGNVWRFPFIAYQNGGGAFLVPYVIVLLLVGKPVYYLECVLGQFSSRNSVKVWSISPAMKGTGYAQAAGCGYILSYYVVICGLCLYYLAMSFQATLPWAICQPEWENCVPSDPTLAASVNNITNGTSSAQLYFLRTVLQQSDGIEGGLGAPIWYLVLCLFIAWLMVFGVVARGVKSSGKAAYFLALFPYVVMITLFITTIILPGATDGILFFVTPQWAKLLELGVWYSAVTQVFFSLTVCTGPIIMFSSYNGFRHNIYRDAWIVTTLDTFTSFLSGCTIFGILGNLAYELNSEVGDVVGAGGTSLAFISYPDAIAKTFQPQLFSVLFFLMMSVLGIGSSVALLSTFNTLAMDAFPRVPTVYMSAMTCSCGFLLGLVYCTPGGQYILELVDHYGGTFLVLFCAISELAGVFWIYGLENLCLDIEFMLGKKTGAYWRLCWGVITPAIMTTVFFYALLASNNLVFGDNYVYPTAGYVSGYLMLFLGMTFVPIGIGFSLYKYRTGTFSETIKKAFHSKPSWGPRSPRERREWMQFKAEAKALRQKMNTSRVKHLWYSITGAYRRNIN
Briefly: two-electrode voltage clamp in oocytes, transport current. In kind it is cell-based. The settings on record: NaCl 98 mmol/L, pH 7.6, -60 mV. (In general: Two-electrode voltage clamp holds a large cell at a set potential and records current.)

A further series deals with T2, KAAT1 (msKAAT1) (Manduca sexta, UniProt O76188).
T2 construct: full-length transporter from cRNA in Xenopus laevis oocytes
T2 sequence (O76188 1-634): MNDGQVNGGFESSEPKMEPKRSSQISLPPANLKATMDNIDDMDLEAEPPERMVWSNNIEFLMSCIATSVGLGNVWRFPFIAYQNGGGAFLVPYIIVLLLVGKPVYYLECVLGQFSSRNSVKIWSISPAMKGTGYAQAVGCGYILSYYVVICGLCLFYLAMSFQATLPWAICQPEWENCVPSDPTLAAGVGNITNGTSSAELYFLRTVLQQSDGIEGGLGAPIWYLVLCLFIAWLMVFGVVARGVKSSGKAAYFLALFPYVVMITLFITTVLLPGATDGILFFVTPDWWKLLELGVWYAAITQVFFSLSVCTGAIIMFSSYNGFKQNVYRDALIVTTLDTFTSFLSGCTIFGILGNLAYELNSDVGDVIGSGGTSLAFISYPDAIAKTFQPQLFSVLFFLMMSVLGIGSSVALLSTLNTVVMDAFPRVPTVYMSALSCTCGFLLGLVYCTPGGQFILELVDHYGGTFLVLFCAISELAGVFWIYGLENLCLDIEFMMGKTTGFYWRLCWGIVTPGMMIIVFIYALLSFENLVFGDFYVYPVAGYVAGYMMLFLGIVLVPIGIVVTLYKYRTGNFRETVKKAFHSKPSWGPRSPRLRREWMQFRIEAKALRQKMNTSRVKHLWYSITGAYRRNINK
The series is described as above. The settings on record: NaCl 98 mmol/L, pH 7.6, -60 mV; main transport site, up to 300 μmol/L. It is filed as cell-based.

The target of series [2] is T1, CAATCH1 (msCAATCH1). Kind of series: two-electrode voltage clamp in oocytes, block of leak current. It is filed as cell-based. The note with it: NaCl 98 mmol/L, pH 7.6, -60 mV; blocker, not transported.
Substrate in series [3]: CC(C)C[C@H](N)C(=O)O
Briefly: two-electrode voltage clamp in oocytes, transport current. The note with it: NaCl 98 mmol/L, pH 7.6, -60 mV, 20-25 °C. It is filed as cell-based, Manduca sexta.

As to `CC(C)C[C@@H](N)C(=O)O` [D‐leucine], the results for the “two-electrode voltage clamp in oocytes, transport current” value at CAATCH1 (msCAATCH1) [1] (30-1000 μmol/L) and at KAAT1 (msKAAT1) were “The amplitude of the response to D‐leucine increases with the substrate concentration” and “increasing concentrations of D‐leucine to the oocyte caused progressively larger transport currents”, respectively.

For the molecule `N[C@H](CO)C(=O)O` [D‐serine], at CAATCH1 (msCAATCH1) [1], the “two-electrode voltage clamp in oocytes, transport current” value is listed as “the D‐enantiomer gives rise to a large current”.

Regarding `CC(C)C[C@H](N)C(=O)O` [L‐leucine], at CAATCH1 (msCAATCH1) [2], the “two-electrode voltage clamp in oocytes, block of leak current” value is “L‐leucine produces an apparent outward current, actually representing a block of the leak current”.

For `N[C@@H](CO)C(=O)O` [L‐serine], the “two-electrode voltage clamp in oocytes, block of leak current” value on CAATCH1 (msCAATCH1) [2] is “has a blocking effect similar to that of L‐leucine”.

B1: KAAT1 (msKAAT1) (Manduca sexta) (protein)
chain: MNDGQVNGGFESSEPKMEPKRSSQISLPPANLKATMDNIDDMDLEAEPPERMVWSNNIEFLMSCIATSVGLGNVWRFPFIAYQNGGGAFLVPYIIVLLLVGKPVYYLECVLGQFSSRNSVKIWSISPAMKGTGYAQAVGCGYILSYYVVICGLCLFYLAMSFQATLPWAICQPEWENCVPSDPTLAAGVGNITNGTSSAELYFLRTVLQQSDGIEGGLGAPIWYLVLCLFIAWLMVFGVVARGVKSSGKAAYFLALFPYVVMITLFITTVLLPGATDGILFFVTPDWWKLLELGVWYAAITQVFFSLSVCTGAIIMFSSYNGFKQNVYRDALIVTTLDTFTSFLSGCTIFGILGNLAYELNSDVGDVIGSGGTSLAFISYPDAIAKTFQPQLFSVLFFLMMSVLGIGSSVALLSTLNTVVMDAFPRVPTVYMSALSCTCGFLLGLVYCTPGGQFILELVDHYGGTFLVLFCAISELAGVFWIYGLENLCLDIEFMMGKTTGFYWRLCWGIVTPGMMIIVFIYALLSFENLVFGDFYVYPVAGYVAGYMMLFLGIVLVPIGIVVTLYKYRTGNFRETVKKAFHSKPSWGPRSPRLRREWMQFRIEAKALRQKMNTSRVKHLWYSITGAYRRNINK
notes: full-length transporter from cRNA in Xenopus laevis oocytes
With B1, the K0.5 in series [3] was 10 µmol/L.

Values taken from PMC4759042, “The D‐amino acid transport by the invertebrate SLC6 transporters KAAT1 and CAATCH1 from Manduca sexta” (Physiological Reports, 2016).
